Measurements published in US5574055A, “Oxazolidinone derivatives” (Hoffmann-La Roche Inc., priority 1993, dated 1996).
Counter-ions that a name gives are not always drawn.

Each molecule was assayed against monoamine oxidase (MAO) (assay: MAO inhibition in vitro (brain)). Conditions: rat brain homogenate, 14C-5-HT or 14C-PEA as substrate (which one not given), pH 7.4, 37° C., 30 min pre-incubation, 10 min incubation.
Assay type: biochemical
Protocol: The MAO inhibiting activity of the compounds in accordance with the invention can be determined using standard methods.
The preparations to be tested were investigated in the in vitro test described hereinafter, which was based on the method of R. J. Wurtmann and J. A. Axelrod [Biochem. Pharmac. 12, 1439-41 (1963).
Isolated rat brains are homogenized in 0.1 molar potassium phosphate buffer (pH 7.4) in the ratio 1:9 (weight/volume), whereupon the homogenate is diluted with the same buffer in the ratio 1:4 (volume/volume) and stored at -20° C. A mixture of the following composition is used for the incubation:
100 μl of 1M phosphate buffer (pH 7.4);
100 μl of solubilizate of the substance to be tested in water or in aqueous dimethyl sulfoxide;
50 μl of rat brain homogenate; and as the substrate
50 μl of ^14 C-labelled serotonin (5-HT) or ^14 C-phenylethylamine (PEA), in each instance 100,000 decay per minute, corresponding to a final concentration of 2·10^-4 mol/l and, respectively, 2·10^-5 mol/l.
A pre-incubation at 37° C. is effected for 30 minutes prior to the addition of the substrate. The incubation (in the presence of the substrate) is likewise effected at 37° C. and lasts for 10 minutes. The reaction is stopped by the addition of 200 μl of 2N hydrochloric acid. In order to extract the deaminated product, the mixture is shaken for 10 minutes with 5 ml of diethyl ether or with 5 ml of n-heptane depending on whether 5-HT or PEA is used as the substrate, whereupon the mixture is centrifuged, the aqueous phase is frozen in a dry-ice bath and the organic phase is transferred into a counting glass.
The activity of the MAO in comparison to the control homogenates is determined on the basis of the β-counter values.
Under the above test conditions the activity is linear with respect to time and to the concentration of the homogenizate. The IC50 values were determined graphically as a log of the concentration-activity curve. The IC50 was defined as that concentration of a substance to be tested which reduces the activity of the MAO upon the substrate 5-HT or PEA by 50%.

Row | IC50 [nM] | Structure (SMILES)
1 | 4 | COCC1CN(c2ccc(C3CCC(C)(O)CC3)cc2)C(=O)O1 (stereo not drawn) [Example 39, (RS)-3-[4-(cis or trans-4-Hydroxy-4-methyl-cyclohexyl)-phenyl]-5-methoxymethyl-oxazolidin-2-one]
2 | 2 | COCC1CN(c2ccc(C3CCCCC3)cc2)C(=O)O1 (racemic) [Example 2, (RS)-3-(4-Cyclohexyl-phenyl)-5-methoxymethyl-oxazolidin-2-one]
3 | 1 | COC[C@H]1CN(c2ccc([C@H]3CC[C@H](CC#N)CC3)cc2)C(=O)O1 [Example 50]
4 | 10 | COCC1CN(c2ccc([C@H]3CC[C@H](OC(C)=O)CC3)cc2)C(=O)O1 (mixture of isomers) [Example 33, Acetic acid (RS)-trans-4-[4-(5-methoxymethyl-2-oxo-oxazolidin-3-yl)-phenyl]-cyclohexylester]
5 | 0.9 | COCC1CN(c2ccc([C@H]3CC[C@H](CC#N)CC3)cc2)C(=O)O1 (mixture of isomers) [Example 49, (RS)-[trans-4-[4-(5-Methoxymethyl-2-oxo-oxazolidin-3-yl)-phenyl]-cyclohexyl]-acetonitrile]
6 | 10 | COCC1CN(c2ccc(C3CCN(C(=O)/C=C/c4ccccc4)CC3)cc2)C(=O)O1 (racemic) [Example 59, (RS)-4-[4-(5-Methoxymethyl-2-oxo-oxazolidin-3-yl)-phenyl]-1-(1-oxo-3-phenyl-2,(E)-propenyl)-piperidine]
7 | 9 | COCC1CN(c2ccc(C3CC4C=CC3C4)cc2)C(=O)O1 (stereo not drawn) [Example 18, 3-[(1RS,2SR,4RS)-4-Bicyclo[2.2.1]hept-5-en-2-yl-phenyl]-5-methoxymethyl-oxazolidin-2-one (R:S=1:1)]
8 | 10 | COCC1CN(c2ccc(C3CCC(=O)CC3)cc2)C(=O)O1 (racemic) [Example 7, (RS)-3-[4-(4-Oxo-cyclohexyl)-phenyl]-5-methoxymethyl-oxazolidin-2-one]
9 | 8.5 | COC[C@H]1CN(c2ccc([C@H]3CC[C@H](O)CC3)cc2)C(=O)O1 [Example 15, (R)-3-[4-(trans-4-Hydroxy-cyclohexyl)-phenyl]-5-methoxymethyl-oxazolidin-2-one]
10 | 1.6 | COC[C@H]1CN(c2ccc([C@H]3CC[C@H](OCC#N)CC3)cc2)C(=O)O1 [Example 63, (R)-[trans-4-[4-(5-Methoxymethyl-2-oxo-oxazolidin-3-yl)-phenyl]-cyclohexyloxy]-acetonitrile]
11 | 5 | COCC1CN(c2ccc([C@H]3CC[C@H](OCCC#N)CC3)cc2)C(=O)O1 (mixture of isomers) [Example 30, (RS)-3-[trans-4-[4-(5-Methoxymethyl-2-oxo-Oxazolidin-3-yl)-phenyl]cyclohexyloxy]-propionitrile]
12 | 2 | COCC1CN(c2ccc([C@H]3CC[C@H](OCC#N)CC3)cc2)C(=O)O1 (mixture of isomers) [Example 66, (RS)-[trans-4-[4-(5-Methoxymethyl-2-oxo-oxazolidin-3-yl)-phenyl]-cyclohexyloxy]-acetonitrile]
13 | 0.1 | COC[C@H]1CN(c2ccc(C3CCCCC3)cc2)C(=O)O1 [Example 6, (R)-3-(4-Cyclohexyl-phenyl)-5-methoxymethyl-oxazolidin-2-one]
14 | 1 | COC[C@H]1CN(c2ccc(C3CCC(=O)CC3)cc2)C(=O)O1 [Example 14, (R)-3-[4-(4-Oxo-cyclohexyl)-phenyl]-5-methoxymethyl-oxazolidin-2-one]
15 | 8.5 | O=C1OC(CO)CN1c1ccc(C2CCCCC2)cc1 (racemic) [Example 1, (RS)-3-(4-Cyclohexyl-phenyl)-5-hydroxymethyl-oxazolidin-2-one]
16 | 8.4 | COCC1CN(c2ccc([C@H]3CC[C@H](O)CC3)cc2)C(=O)O1 (mixture of isomers) [Example 8, (RS)-3-[4(trans-4-Hydroxy-cyclohexyl)-phenyl]-5-methoxymethyl-oxazolidin-2-one]
17 | 74 | COCC1CN(c2ccc([C@H]3CC[C@H](OCCN)CC3)cc2)C(=O)O1 (stereo partly drawn) [Example 68, (RS)-3-[trans-4-[4-(5-Methoxymethyl-2-oxo-oxazolidin-3-yl)-phenyl]-cyclohexyloxy]ethanamine.HCl]
18 | 6 | COCC1CN(c2ccc([C@H]3CC[C@H](OC)CC3)cc2)C(=O)O1 (stereo partly drawn) [Example 16]
19 | 3 | COCC1CN(c2ccc(C3CCC(CO)CC3)cc2)C(=O)O1 (racemic) [Example 38, (RS)-3-[4-(Cis- and trans-4-Hydroxymethyl-cyclohexyl)-phenyl]-5-methoxymethyl-oxazolidin-2-one]
20 | 1.9 | COC[C@H]1CN(c2ccc(OCC[C@@H](O)C(F)(F)F)cc2)C(=O)O1 [Befloxaton, reference compound]
21 | 33 | COC[C@H]1CN(c2ccc([C@H]3CC[C@H](OCCCN)CC3)cc2)C(=O)O1 [Example 71, (R)-3-[trans-4-(3-Amino-propoxy)-cyclohexyl]-phenyl]-5-methoxymethyl-oxazolidin-2-one hydrochloride]
